Data as given in the OligoGym collection.
“And” between values parts separate entries of the source, which are not always exact repeats. Identical values can stand only once. After the bases stand the sugars from the 5' end (letter, count) and the backbone: PS all phosphorothioate, else s phosphorothioate and o phosphodiester by linkage. Methylation of C is not given here. e = 2'-O-(2-methoxyethyl) (MOE); k = constrained ethyl (cEt); d = 2'-deoxy (DNA)

What was measured:
APOL1 = settings: ASO
MALAT1 = settings: ASO, A431, 0.005 µM

| Sequence | target mRNA inhibition (APOL1; A431, 2 µM) [%] | target mRNA inhibition (MALAT1) | also measured |
| --- | --- | --- | --- |
| GAAGATTGGCTCTGGC (sugars k3 d4 k3 e1 d5, PS) | 70 |  |  |
| AAGATTGGCTCTGGCT (sugars kkddddkekekddddd, PS) | 37 |  |  |
| AGCTTTAAACTCAGGT (sugars kkdddddkekeddddd, PS) | 94 |  | target mRNA inhibition (APOL1; A431, 0.0156 µM): 31%; target mRNA inhibition (APOL1; A431, 0.0625 µM): 53%; target mRNA inhibition (APOL1; A431, 0.25 µM): 79%; target mRNA inhibition (APOL1; A431, 1 µM): 92% |
| GAACGCAATGCTGACT (sugars k3 d10 k3, PS) |  |  | target mRNA inhibition (APOL1; A431, 0.0625 µM): 14%; target mRNA inhibition (APOL1; A431, 0.25 µM): 50%; target mRNA inhibition (APOL1; A431, 1 µM): 76% |
| ACTTTATACCAGTGTC (sugars k3 d4 k3 e1 d5, PS) | 58 |  |  |
| ACGCAATGCTGACTTG (sugars kkkddddkekeddddd, PS) | 87 |  |  |
| CGCAATGCTGACTTGG (sugars kkkddddkekekdddd, PS) | 68 |  |  |
| GTTATGAAATTATTGG (sugars kdddddkekekddddd, PS) | 73 |  |  |
| ATCAGATGGGTACTTC (sugars k2 d4 e3 k2 d5, PS) | 67 |  |  |
| AATTATGGAATTGCAG (sugars kdddddkekekddddd, PS) | 52 |  |  |
| AGCTTTAAACTCAGGT (sugars k3 d4 k3 e1 d5, PS) | 82 |  |  |
| GTATTTCTTGATGTGG (sugars kekddddeekkddddd, PS) | 99 |  | target mRNA inhibition (APOL1; A431, 0.04 µM): 70%; target mRNA inhibition (APOL1; A431, 1 µM): 99% |
| ACACATCATTGGGTTA (sugars kkddddekekeddddd, PS) | 64 |  |  |
| GTTTTGTAAGTGCAAC (sugars kkddddekekeddddd, PS) | 86 |  |  |
| TATTTCTTGATGTGGT (sugars kkddddekekeddddd, PS) | 99 |  | target mRNA inhibition (APOL1; A431, 0.0156 µM): 36%; target mRNA inhibition (APOL1; A431, 0.04 µM): 53% and 50%; target mRNA inhibition (APOL1; A431, 0.0625 µM): 66%; target mRNA inhibition (APOL1; A431, 0.25 µM): 90%; target mRNA inhibition (APOL1; A431, 1 µM): 98% and 96% |
| TGTATTTCTTGATGTG (sugars k2 d4 e3 k2 d5, PS) | 87 |  |  |
| TAATTCTATTAGAGGG (sugars kkddddekekeddddd, PS) | 46 |  |  |
| AGTTTTGTAAGTGCAA (sugars kkddddkdkdkddddd, PS) | 91 |  | target mRNA inhibition (APOL1; A431, 0.0156 µM): 16%; target mRNA inhibition (APOL1; A431, 0.0625 µM): 34%; target mRNA inhibition (APOL1; A431, 0.25 µM): 72%; target mRNA inhibition (APOL1; A431, 1 µM): 85% |
| TTATGAAATTATTGGT (sugars k2 d4 e4 k2 d4, PS) | 35 |  |  |
| ATTCAGAATTTCCACT (sugars k2 d4 e4 k2 d4, PS) | 64 |  |  |
| CTAATTTTCTGACTGT (sugars kkddddkekekkdddd, PS) | 71 |  |  |
| AAGCTTTAAACTCAGG (sugars kkkddddkekekdddd, PS) | 16 |  |  |
| ATCAGATGGGTACTTC (sugars kkdddddkekeddddd, PS) | 83 |  |  |
| AAAGAACTCAAGTCAG (sugars k4 d9 k3, PS) |  |  | target mRNA inhibition (APOL1; A431, 0.25 µM): 61% and 82%; target mRNA inhibition (APOL1; A431, 1 µM): 83% and 90% |

| Sequence | target mRNA inhibition (APOL1; A431, 2 µM) [%] | target mRNA inhibition (MALAT1) | also measured |
| --- | --- | --- | --- |
| AGTATTGTTTTTGTGG (sugars kkddddkdkdkddddd, PS) | 72 |  |  |
| AACACATCATTGGGTT (sugars k2 d4 e3 k2 d5, PS) | 43 |  |  |
| TTATATTTGATCCTCA (sugars kkddddkdkdkddddd, PS) | 96 |  | target mRNA inhibition (APOL1; A431, 0.0156 µM): 15%; target mRNA inhibition (APOL1; A431, 0.0625 µM): 44%; target mRNA inhibition (APOL1; A431, 0.25 µM): 76%; target mRNA inhibition (APOL1; A431, 1 µM): 93% |
| ACCCTTTTGGCACCTT (sugars k4 d9 k3, PS) |  |  | target mRNA inhibition (APOL1; A431, 0.0625 µM): 49%; target mRNA inhibition (APOL1; A431, 0.25 µM): 79% and 76%; target mRNA inhibition (APOL1; A431, 1 µM): 92% and 89% |
| GAGTATTGTTTTTGTG (sugars kkkddddkekeddddd, PS) | 81 |  |  |
| TAAGTATTGCCAGCTA (sugars k2 d4 e3 k2 d5, PS) | 79 |  |  |
| ATTCTATTAGAGGGCT (sugars kkddddkekekddddd, PS) | 46 |  |  |
| GGCAGTTTTGTAAGTG (sugars k2 d4 e3 k2 d5, PS) | 80 |  |  |
| CATTCAGAATTTCCAC (sugars kddddkekekeddddd, PS) | 58 |  |  |
| TTGTAAGTGCAACCAA (sugars k3 d4 k3 e1 d5, PS) | 78 |  |  |
| GTTTACTTACCGGGTA (sugars k4 d9 k3, PS) |  |  | target mRNA inhibition (APOL1; A431, 0.0625 µM): 47% and 38%; target mRNA inhibition (APOL1; A431, 1 µM): 84% and 63% |
| TTTATACCAGTGTCTT (sugars k2 d4 e4 k2 d4, PS) | 89 |  |  |
| CGCAATGCTGACTTGG (sugars kkddddkekekkdddd, PS) | 60 |  |  |
| TTTGTAAGTGCAACCA (sugars k3 d5 k3 d5, PS) | 98 |  |  |
| GCAGTTTCATATTCAC (sugars k4 d9 k3, PS) |  |  | target mRNA inhibition (APOL1; A431, 0.0625 µM): 75%; target mRNA inhibition (APOL1; A431, 0.25 µM): 92%; target mRNA inhibition (APOL1; A431, 1 µM): 98% |
| GGTTCAAAAGCAGCAT (sugars kkkddddkekeddddd, PS) | 70 |  |  |
| AATTTTATGGAACCTC (sugars k3 d10 k3, PS) |  |  | target mRNA inhibition (APOL1; A431, 0.0625 µM): 37%; target mRNA inhibition (APOL1; A431, 0.25 µM): 74%; target mRNA inhibition (APOL1; A431, 1 µM): 90% |
| CGTGTTATATTTGATC (sugars kkddddekekeddddd, PS) | 76 |  |  |
| TCCTGGGCGGCGACAA (sugars k4 d9 k3, PS) |  |  | target mRNA inhibition (APOL1; A431, 0.0625 µM): 46%; target mRNA inhibition (APOL1; A431, 0.25 µM): 74%; target mRNA inhibition (APOL1; A431, 1 µM): 85% |
| GAGAACATTGAAACAC (sugars k3 d10 k3, PS) |  |  | target mRNA inhibition (APOL1; A431, 0.0625 µM): 19%; target mRNA inhibition (APOL1; A431, 0.25 µM): 65%; target mRNA inhibition (APOL1; A431, 1 µM): 86% |
| AGTATTGCCAGCTAAG (sugars kkddddkdkdkddddd, PS) | 69 |  |  |
| GAAGATTGGCTCTGGC (sugars kekddddeekkddddd, PS) | 87 |  |  |
| CTTTATACCAGTGTCT (sugars kkkddddkdkdkdddd, PS) | 87 |  |  |
| GTAGAATGAGCAGGTC (sugars k4 d9 k3, PS) |  |  | target mRNA inhibition (APOL1; A431, 0.0625 µM): 84%; target mRNA inhibition (APOL1; A431, 0.25 µM): 97%; target mRNA inhibition (APOL1; A431, 1 µM): 99% |

| Sequence | target mRNA inhibition (APOL1; A431, 2 µM) [%] | target mRNA inhibition (MALAT1) | also measured |
| --- | --- | --- | --- |
| CCTTATGCTTACTCCA (sugars k4 d9 k3, PS) |  |  | target mRNA inhibition (APOL1; A431, 0.0625 µM): 68%; target mRNA inhibition (APOL1; A431, 0.25 µM): 82%; target mRNA inhibition (APOL1; A431, 1 µM): 93% |
| GTATTTCTTGATGTGG (sugars k3 d4 k3 e1 d5, PS) | 98 |  |  |
| GAGTATTGTTTTTGTG (sugars k3 d4 k3 e1 d5, PS) | 88 |  |  |
| GTTTTGTAAGTGCAAC (sugars k2 d4 e3 k2 d5, PS) | 83 |  |  |
| TTCTATTAGAGGGCTA (sugars kddddkekekeddddd, PS) | 34 |  |  |
| TCATCATAGATACTCC (sugars k4 d9 k3, PS) |  |  | target mRNA inhibition (APOL1; A431, 0.0625 µM): 33%; target mRNA inhibition (APOL1; A431, 0.25 µM): 67%; target mRNA inhibition (APOL1; A431, 1 µM): 84% |
| GTCTCATACACTCACT (sugars k3 d10 k3, PS) |  | -4% |  |
| CACCAAATTGCACTCG (sugars k3 d10 k3, PS) |  | 54% and 73% |  |
| CCAAGATTGCCCCAAC (sugars k3 d10 k3, PS) |  | 14% |  |
| CCTACCGCACAGCTCG (sugars k3 d10 k3, PS) |  | 3% |  |
| GACTTTCTCCCCCAAC (sugars k3 d10 k3, PS) |  | 6% |  |
| TTAAAGTAGACCAACT (sugars k3 d10 k3, PS) |  | 27% |  |
| GCCAGTGGCCCACTCT (sugars k3 d10 k3, PS) |  | -8% |  |
| TCACAAATACGACTGC (sugars k3 d10 k3, PS) |  | 23% |  |
| TGGTTTTAATACCCTT (sugars k3 d10 k3, PS) |  | 11% |  |
| CAGCTCGGGCGAGGCG (sugars k3 d10 k3, PS) |  | 13% |  |
| TACAAGTTACATGTTC (sugars k3 d10 k3, PS) |  | 20% |  |
| AAACTTATCTGCGGTT (sugars k3 d10 k3, PS) |  | 19% |  |
| GCTAGGGAAAAGTGGT (sugars k3 d10 k3, PS) |  | 5% |  |
| TGAGGCAAACGAAACA (sugars k3 d10 k3, PS) |  | 16% |  |
| GTTACTCCAGCATAAA (sugars k3 d10 k3, PS) |  | 0% |  |
| TACTATAGCATCTGTG (sugars k3 d10 k3, PS) |  | -7% |  |
| TTCTAATAGCAGCGGG (sugars k3 d10 k3, PS) |  | 59% and 40% |  |
| CAATGCACTAAAGATC (sugars k3 d10 k3, PS) |  | 10% |  |

| Sequence | target mRNA inhibition (APOL1; A431, 2 µM) [%] | target mRNA inhibition (MALAT1) | also measured |
| --- | --- | --- | --- |
| CCACCCTCTAAGAGAC (sugars k3 d10 k3, PS) |  | -17% |  |
| TGATTTTAAGGTTGCA (sugars k3 d10 k3, PS) |  | 70% and 67% |  |
| CTCTAATCACTGTCAA (sugars k3 d10 k3, PS) |  | 11% |  |
| TCCCGTACTTCTGTCT (sugars k3 d10 k3, PS) |  | 41% |  |
| CCCCATTATATTAGAA (sugars k3 d10 k3, PS) |  | -6% |  |
| GAGGGACAGTAGGTAT (sugars k3 d10 k3, PS) |  | 19% |  |
| TGCTAGCTTGGCCAAG (sugars k3 d10 k3, PS) |  | 16% |  |
| GAAACCTGGGCTCCCG (sugars k3 d10 k3, PS) |  | 13% |  |
| GTGTGATAGTTCAGGG (sugars k3 d10 k3, PS) |  | 8% |  |
| ACGCCAACACAGTTTG (sugars k3 d10 k3, PS) |  | 48% |  |
| TTGCCTACCACTCTAA (sugars k3 d10 k3, PS) |  | 0% |  |
| CCCATTATATTAGAAA (sugars k3 d10 k3, PS) |  | 10% |  |
| TCCAATACTTGTCTTA (sugars k3 d10 k3, PS) |  | 68% and 75% |  |
| CATTGGGAGTTACTTG (sugars k3 d10 k3, PS) |  | 32% |  |
| GCTCTGTAGTCCTTTC (sugars k3 d10 k3, PS) |  | 42% |  |
| TGTATTAATCTCTATC (sugars k3 d10 k3, PS) |  | 41% |  |
| GCCTTTGTGAGGGAGG (sugars k3 d10 k3, PS) |  | -23% |  |
| CAACTTGGAAGTTGAT (sugars k3 d10 k3, PS) |  | 10% |  |
| ACTCCCCCATTATATT (sugars k3 d10 k3, PS) |  | 2% |  |
| ACTATCACAATTCTTA (sugars k3 d10 k3, PS) |  | 13% |  |
| CTGATTCTAACAGCAC (sugars k3 d10 k3, PS) |  | 55% and 49% and 50% |  |
